Measurements reported in US20090172831A1, “Methods for the production of plants resistant to HPPD herbicides” (Syngenta Limited, priority 2000, published 2009).
Like-named read-outs stand apart in the source and are kept apart here. Blank lines part the entries; values can stand above or below the molecule they belong to.

What was measured:
Wheat HPPD = Wheat HPPD (Triticum aestivum, UniProt A0A3B6NLC6); assay: Dissociation of enzyme/inhibitor complexes by exchange with 14C-labelled inhibitor (koff; Kd = koff/kon); format: binding; conditions: for koff: − glycerol
Excerpt: (§1) Herbicidal inhibitors of HPPD are found here to have generally low values of koff (in the range less than 0.0003 s^−1, often less than 0.000001 s^−1). It will be appreciated that many suitable methods known in the art for determining such low koff values are suitable for working the current invention. These include measuring rates of exchange of radio or otherwise labelled inhibitors either with or away from the enzyme inhibitor complex. For example enzyme inhibitor complexes can readily be prepared by incubating HPPD preparations with labelled or unlabelled inhibitor and then, after suitable periods, optionally rapidly separating the thus formed enzyme inhibitor complex from excess inhibitor by any suitable method such as ultrafiltration, binding to filters or exchange down a gel filtration column. Exchange reactions with the, thus prepared enzyme inhibitor complex is then initiated by addition of, as appropriate, excess labelled or unlabelled inhibitor. HPPD preparations suitable for use in the methods of the current invention are relatively unpurified, buffer-exchanged, supernatant fractions of spun crude lysates of E. coli strains engineered to express the HPPD enzyme of interest at a level of, typically, about 0.25-10% of the total soluble protein. Many methods such as radiometric, fluorimetric, NMR, fluorescence depolarisation, EPR, Mossbauer, UV/VIS spectrophotometry etc. or phonon resonance can, in principle, be used to monitor the enzyme/ligand exchange reactions and, particularly in this case where the enzyme contains an iron atom at the ligand binding site. Optionally, the monitoring method may be continuous (as, for example, with scintillation proximity/bead-based methods) or, discontinuous, based upon collection of data at various timepoints wherein samples are removed and the bound and unbound label components rapidly separated and quantitated.
(§2) Values of koff can suitably be calculated by computer fitting based upon is numerical integration of the exchange data along with information on the active-site concentration of HPPD and upon kon values obtained as described below. […] In any event, koff values are always here calculated from the rate of the major slow exchange reaction. It will be appreciated that within the scope of the current invention many methods of making the desired kinetic comparisons are possible without explicit or rigorous determination of off rates but, based upon the same underlying principle, will achieve the same selection result.
The dissociation rates (off rates) of inhibitors selected from Formula 1 and/or 2 and/or 3 and/or 4 from the complexes that they form with test and control HPPD enzymes are suitably measured in a number of ways. Thus, for example, the rates of dissociation of mesotrione, a compound selected from Formula 1 and of the diketonitrile of isoxaflutole, a compound selected from Formula 3 from their respective complexes with, test, wheat HPPD and with, control, Arabidopsis HPPD are compared. The method and results from a typical test are as follows.
^14C mesotrione is of specific activity 1.12 GBq/mmol. This is ˜95% pure radiochemically by TLC and based upon the proportion of material tight-binding to HPPD. Arabidopsis and, (test), wheat HPPD are each diluted to a concentration of ˜0.45 and 0.54 μM, respectively into 1.6 ml of 50 mM Bis-Tris propane buffer at pH 7.0 containing 25% glycerol, 25 mM sodium ascorbate and 3 mg/l of bovine catalase (Sigma C3155˜50,000 units/mg) containing […] ^14C mesotrione and left to react at 25 C for 2.5-3 h. Following this initial binding reaction, exchange reactions are initiated by addition of cold mesotrione to a final concentration of 60 μM and 200 μl aliquots removed at various times to rapid chromatography down a NAP5 gel filtration column equilibrated in 50 mM BTP at pH 7 containing 0.1 M KCl, separation into fractions containing protein-bound or free radiolabel and liquid scintillation counting. […]

Arabidopsis HPPD [1] = target: T1, Arabidopsis HPPD (Arabidopsis thaliana, UniProt P93836); assay: as above; format: binding; conditions: for koff: − glycerol
T1 construct: made in house; host or cells: E. coli BL21 (DE3) codon+ RP
T1 sequence (P93836 1-445): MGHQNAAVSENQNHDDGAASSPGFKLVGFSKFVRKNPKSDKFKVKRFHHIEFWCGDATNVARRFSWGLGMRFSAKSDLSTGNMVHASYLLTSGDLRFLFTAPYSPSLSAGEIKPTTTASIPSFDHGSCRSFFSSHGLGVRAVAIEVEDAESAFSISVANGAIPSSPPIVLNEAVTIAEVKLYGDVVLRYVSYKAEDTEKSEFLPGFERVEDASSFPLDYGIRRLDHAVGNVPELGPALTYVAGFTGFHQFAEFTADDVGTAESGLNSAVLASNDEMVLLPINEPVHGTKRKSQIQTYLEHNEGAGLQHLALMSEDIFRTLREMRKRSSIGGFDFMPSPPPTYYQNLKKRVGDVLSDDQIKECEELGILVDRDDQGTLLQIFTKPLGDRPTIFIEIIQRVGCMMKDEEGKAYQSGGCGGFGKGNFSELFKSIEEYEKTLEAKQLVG
Protocol: as §1, with “It” for “Herbicidal inhibitors of HPPD are found here to have generally low values of koff (in the range less than 0.0003 s^−1, often less than 0.000001 s^−1). It”, “HPPD preparations suitable for use in the methods of the current invention are relatively unpurified, buffer-exchanged, supernatant fractions of spun crude lysates of E. coli strains engineered to express the HPPD enzyme of interest at a level of, typically, about 0.25-10% of the total soluble protein.” left out
Values of koff can suitably be calculated by computer fitting based upon is numerical integration of the exchange data along with information on the active-site concentration of HPPD and upon kon values obtained as described below. […] In any event, koff values are always here calculated from the rate of the major slow exchange reaction.
^14C mesotrione is of specific activity 1.12 GBq/mmol. […] Following this initial binding reaction, exchange reactions are initiated by addition of cold mesotrione to a final concentration of 60 μM and 200 μl aliquots removed at various times to rapid chromatography down a NAP5 gel filtration column equilibrated in 50 mM BTP at pH 7 containing 0.1 M KCl, separation into fractions containing protein-bound or free radiolabel and liquid scintillation counting.
Nevertheless, here, for practical purposes, koff values are always here calculated from the rate of the major slow exchange reaction.
Not all test inhibitors are readily available in a radiolabelled form.

P. fluorescens HPPD = P. fluorescens HPPD (Pseudomonas fluorescens, UniProt A0ACG8AE61); assay: as above; format: binding
Excerpt: as §1
as §2, with “result. […]” for “result.”
Not all test inhibitors are readily available in a radiolabelled form. A more general method of measuring off rates is to first form the complex with unlabelled test inhibitor, to rapidly exchange the complex free of excess unlabelled inhibitor and to then start the exchange reaction by addition of an excess of a standard labelled inhibitor, the kinetic properties of which are already known. The reaction is then monitored and the relative proportions of bound and unbound label determined at various times. […] The latter is the method of choice when the rate of exchange is fast (t½<3 h).
In, variants of the above methods, off rates are measured either in the presence or absence of ˜25% v/v glycerol. In the presence of glycerol values obtained are generally ˜1.5-3× slower than in its absence although sometimes the change is outside this range or, even, in the other direction. Further examples of data obtained are depicted in the following Table 3.
Crude Extracts of recombinant E. coli strains expressing, in the one case, a control HPPD (from Arabidopsis) and, in the other, one or more test HPPD sequences are prepared as described in the preceding example. The titre of active sites and enzyme activity are also defined and measured as described in the preceding examples. […]

Arabidopsis HPPD [2] = target: T1, Arabidopsis HPPD; assay: Inhibition of HPPD (E. coli extract) after pre-incubation with inhibitor; format: biochemical; conditions: read-out: inhibition (relative to controls)
Protocol: (§3) Qualitative measurements of the differences in Kd values in respect of different HPPD inhibitors are obtained by pre-incubating enzyme with inhibitor and, then, subsequently, measuring the % inhibition. For example HPPD is isolated from maize seedlings, part purified and assayed by similar methods to those described by Schulz et al 1993 (FEBS LETS. 318, 162-166) and by Secor (1994) in Plant Physiol. 106, 1429-1433. Assays are run for 30 minutes and started with addition of radiolabelled hydroxyphenylpyruvate (final concentration ˜0.1-0.2 mM) following a 20-30 min period over which inhibitor is pre-incubated with the part-purified enzyme.
Using the same assay method but using HPPD from Arabidopis (obtained from E. coli cells transformed to express the Arabidopsis HPPD and prepared as an E. coli extract similar to the methods described by Garcia et al in Plant Physiol (1999) 119, 1507-1516) the following levels of inhibition (relative to controls) are observed with the following doses of herbicide versus Arabidopsis HPPD.

maize HPPD = assay: Inhibition of part purified HPPD after pre-incubation with inhibitor; format: biochemical
Protocol: as §3
The following levels of inhibition (relative to controls) are observed with the following doses of herbicide versus maize HPPD

[3] = Kd, without glycerol, Kd = koff/kon
[4] = value obtained + glycerol (in parentheses), read-out: Kd
[5] = without glycerol, Kd = koff/kon, read-out: Kd

Chain of P. fluorescens HPPD (A0ACG8AE61 entry or part of it): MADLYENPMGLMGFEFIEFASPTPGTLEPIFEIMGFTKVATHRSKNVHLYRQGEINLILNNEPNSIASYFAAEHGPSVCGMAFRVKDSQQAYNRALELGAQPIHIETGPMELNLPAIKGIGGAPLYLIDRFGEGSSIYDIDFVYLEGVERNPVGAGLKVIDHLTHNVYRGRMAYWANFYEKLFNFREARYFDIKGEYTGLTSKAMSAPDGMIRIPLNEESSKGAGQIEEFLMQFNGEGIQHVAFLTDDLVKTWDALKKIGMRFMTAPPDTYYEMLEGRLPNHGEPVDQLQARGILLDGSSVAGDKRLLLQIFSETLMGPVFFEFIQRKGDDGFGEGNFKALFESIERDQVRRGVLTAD
Chain of Wheat HPPD (A0A3B6NLC6 entry or part of it): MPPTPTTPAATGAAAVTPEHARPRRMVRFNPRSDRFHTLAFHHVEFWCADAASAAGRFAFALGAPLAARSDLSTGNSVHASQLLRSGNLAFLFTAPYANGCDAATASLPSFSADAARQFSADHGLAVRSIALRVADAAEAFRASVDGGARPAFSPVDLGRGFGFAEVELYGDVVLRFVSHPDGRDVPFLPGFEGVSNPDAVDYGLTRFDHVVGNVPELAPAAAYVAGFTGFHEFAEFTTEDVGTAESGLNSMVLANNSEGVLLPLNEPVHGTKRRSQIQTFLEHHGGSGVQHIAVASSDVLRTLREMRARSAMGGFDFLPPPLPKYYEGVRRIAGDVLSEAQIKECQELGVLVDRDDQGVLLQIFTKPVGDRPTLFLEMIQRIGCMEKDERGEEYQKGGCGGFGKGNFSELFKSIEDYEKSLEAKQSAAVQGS

SMILES: Cc1nc(C(F)(F)F)ccc1C(=O)C1C(=O)C(C)(C)C(=O)C(C)(C)C1=O [Structure VII, 3-[[2-methyl-6-(trifluoromethyl)-3-pyridinyl]carbonyl]-4,4,6,6-tetramethylcyclohexane-1,3,5-trione]
Kd (Wheat HPPD; [3]): 0.175 nM
koff (Wheat HPPD): 8.3e-06 s⁻¹
Kd (Arabidopsis HPPD [1]): 0.032 nM
koff (Arabidopsis HPPD [1]): 1e-06 s⁻¹
koff (P. fluorescens HPPD; − glycerol): > 0.0003 s⁻¹

SMILES: CS(=O)(=O)c1cc(C(F)(F)F)ccc1C(=O)C(C#N)C(=O)C1CC1 (stereo not shown) [Structure IV, 1-[2-(methanesulfonyl)-4-(trifluoromethyl)phenyl]-3-cyclopropyl-2-cyano-propane-1,3-dione, reference compound]
Kd (Wheat HPPD; [4]): 0.596 nM
Kd (Wheat HPPD; [5]): 0.885 nM
inhibition at 0.001 µM (Arabidopsis HPPD [2]; 1 nM): 20%
inhibition at 0.01 µM (Arabidopsis HPPD [2]; 10 nM): 90%
inhibition at 0.1 µM (Arabidopsis HPPD [2]; 100 nM): 95%
inhibition at 1 µM (Arabidopsis HPPD [2]; 1000 nM): 95%
Kd (P. fluorescens HPPD; in water at pH 7.0 and at 25 C, read-out: dissociation constant (Kd)): 12.2 nM
Kd (P. fluorescens HPPD; [4]): 1.1 nM
Kd (P. fluorescens HPPD; [5]): 12.2 nM

SMILES: CS(=O)(=O)c1ccc(C(=O)C2C(=O)CCCC2=O)c(Cl)c1 [sulcotrione, 2-(2-Chloro-4-methanesulphonylbenzoyl)-cyclohexane-1,3-dione]
inhibition at 0.001 µM (Arabidopsis HPPD [2]): 57%
inhibition at 0.01 µM (Arabidopsis HPPD [2]): 96%
inhibition at 0.1 µM (Arabidopsis HPPD [2]): 100%
inhibition at 1 µM (Arabidopsis HPPD [2]): 100%
fold less active against the maize enzyme than structure IV (maize HPPD): ~100 fold
inhibition (relative to controls) (maize HPPD; 10 nM): 8%
inhibition (relative to controls) (maize HPPD; 100 nM): 51%
inhibition (relative to controls) (maize HPPD; 1000 nM): 83%

SMILES: Cc1cc(C#N)ccc1C(=O)C1C(=O)C(C)(C)C(=O)C(C)(C)C1=O [Structure VI, 2-[2-methyl-4-cyanobenzoyl]-4,4,6,6-tetramethylcyclohexane-1,3,5-trione]
Kd (Wheat HPPD; [3]): 0.45 nM
Kd (Arabidopsis HPPD [1]): 0.025 nM
Kd (P. fluorescens HPPD; [5]): > 20 nM

koff (Wheat HPPD; read-out: koff): > 0.0002 s⁻¹
koff (Arabidopsis HPPD [1]): 1.1e-05 s⁻¹
SMILES: CCOCc1nc(C(F)(F)F)ccc1C(=O)C1C(=O)C2CCC(C2)C1=O (stereo not shown) [Structure III, 3-[[2-(ethoxymethyl)-6-(trifluoromethyl)-3-pyridinyl]carbonyl]-bicyclo[3.2.1]-octane-2,4-dione]

strength of inhibition (Arabidopsis HPPD [1]; used for pre-incubation in control experiments): weak inhibitor
SMILES: CCC1CC(=O)C(C(=O)C2CC2)C(=O)C1(C)S(C)(=O)=O (stereo not shown) [Structure VIII, 2-[cyclopropylcarbonyl]-5-ethyl-4-methanesulfonyl-4-methylcyclohexane-1,3-dione]
